Experimental findings from patent US12398154B2, “Azaquinazoline pan-KRas inhibitors” (Mirati Therapeutics, Inc., priority 2020, dated 2025) are described below.

As usually defined, the IC50 is the concentration that gives 50% inhibition. A low value points to greater potency.

Common to all, as to experiment: biochemical
The target of assay [1] is KRas G12D (Homo sapiens, UniProt P01116, G12D).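 Also: TR-FRET displacement binding assay on KRas, read after a one-hour incubation at room temperature, IC50 fitted from percent-of-control values.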
KRas G12D, sequence (P01116 1-169 isoform P01116-2 G12D): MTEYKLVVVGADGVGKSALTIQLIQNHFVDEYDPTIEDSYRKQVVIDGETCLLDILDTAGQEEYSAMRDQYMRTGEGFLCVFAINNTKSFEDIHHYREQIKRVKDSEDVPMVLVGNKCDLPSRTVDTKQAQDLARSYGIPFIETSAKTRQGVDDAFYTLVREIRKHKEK
Procedure: (§1) The ability of a compound to bind to KRas was measured using a TR-FRET displacement assay. […] After a 60-minute incubation at room temperature, the reaction was measured using a BMG LABTECH CLARIO star Plus via TR-FRET. […] The POC values were fit to a 4-parameter IC50 equation and the IC50 value reported.
Assay [2] deals with KRas G12R (Homo sapiens, UniProt P01116, G12R).
KRas G12R, sequence (P01116 1-169 isoform P01116-2 G12R): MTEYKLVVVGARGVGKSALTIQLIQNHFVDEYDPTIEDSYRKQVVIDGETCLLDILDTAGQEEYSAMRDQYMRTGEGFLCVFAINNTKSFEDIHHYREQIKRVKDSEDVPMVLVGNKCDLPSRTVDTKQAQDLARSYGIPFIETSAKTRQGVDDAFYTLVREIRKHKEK
Procedure: as §1
The target in assay [3] is KRas G12V (Homo sapiens, UniProt P01116, G12V).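 Also: KRas binding measured by TR-FRET displacement at room temperature, IC50 fitted from percent of control values.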
KRas G12V, sequence (P01116 1-169 isoform P01116-2 G12V): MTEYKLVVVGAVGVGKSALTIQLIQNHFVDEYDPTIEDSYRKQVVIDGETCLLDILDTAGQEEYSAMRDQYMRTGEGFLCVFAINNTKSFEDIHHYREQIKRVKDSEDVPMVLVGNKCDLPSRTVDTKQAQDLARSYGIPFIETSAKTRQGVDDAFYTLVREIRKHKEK
Procedure: as §1

For the compound `CC1(O)CCCN(c2nc(OCC34CCCN3CCC4)nc3c(F)c(-c4cccc5cccc(Cl)c45)ncc23)C1` (centres unmarked) [Example 1, 1-(7-(8-chloronaphthalen-1-yl)-8-fluoro-2-((hexahydro-1H-pyrrolizin-7a-yl)methoxy)pyrido[4,3-d]pyrimidin-4-yl)-3-methylpiperidin-3-ol], the IC50 in assay [1] was 0.33 µM; in assay [2], 0.866 µM; in assay [3] it was 0.565 µM.
The like results for `O=C1CC2(CCCN(c3nc(OCC45CCCN4CCC5)nc4c(F)c(-c5cccc6cccc(Cl)c56)ncc34)C2)CN1` (centres unmarked) [Example 2, 7-(7-(8-chloronaphthalen-1-yl)-8-fluoro-2-((tetrahydro-1H-pyrrolizin-7a(5H)-yl)methoxy)pyrido[4,3-d]pyrimidin-4-yl)-2,7-diazaspiro[4.5]decan-3-one] were, in that order, 0.632 µM, 2.18 µM and 1.01 µM.
With `O=C1CCN(c2nc(OCC34CCCN3CCC4)nc3c(F)c(-c4cccc5cccc(F)c45)ncc23)CCCN1` [Example 3, 5-(8-fluoro-7-(8-fluoronaphthalen-1-yl)-2-((hexahydro-1H-pyrrolizin-7a-yl)methoxy)pyrido[4,3-d]pyrimidin-4-yl)-1,5-diazocan-2-one], the results for the IC50 in assay [1], in assay [2] and in assay [3] were 8.18 µM, 20.4 µM and 11.7 µM, respectively.
Turning to `OC1CCCN(c2nc(OCC34CCCN3CCC4)nc3c(F)c(-c4cccc5cccc(F)c45)ncc23)CC1` (centres unmarked) [Example 8, 1-(8-fluoro-7-(8-fluoronaphthalen-1-yl)-2-((hexahydro-1H-pyrrolizin-7a-yl)methoxy)pyrido[4,3-d]pyrimidin-4-yl)azepan-4-ol], the IC50 amounted to 2.24 µM in assay [1], 5.41 µM in assay [2] and 2.63 µM in assay [3].
On the same counts, the results for `CCc1c(F)ccc2cc(O)cc(-c3ncc4c(N5CCC[C@](C)(O)C5)nc(OC[C@@H]5C[C@@H](OC(=O)NC)CN5C)nc4c3F)c12` [Example 9, [(3R,5S)-5-[[7-(8-ethyl-7-fluoro-3-hydroxy-1-naphthyl)-8-fluoro-4-[(3S)-3-hydroxy-3-methyl-1-piperidyl]pyrido[4,3-d]pyrimidin-2-yl]oxymethyl]-1-methyl-pyrrolidin-3-yl] N-methylcarbamate] are 0.456 µM, 0.354 µM and 0.333 µM.
The like results for `OC1CCN(c2nc(OCC34CCCN3CCC4)nc3c(F)c(-c4cccc5cccc(F)c45)ncc23)CC1` [Example 11, 1-(8-fluoro-7-(8-fluoronaphthalen-1-yl)-2-((hexahydro-1H-pyrrolizin-7a-yl)methoxy)pyrido[4,3-d]pyrimidin-4-yl)piperidin-4-ol] were, in that order, 15.5 µM, 40.1 µM and 20.8 µM.
For the compound `CC1(CNc2nc(OCC34CCCN3CCC4)nc3c(F)c(-c4cccc5cccc(F)c45)ncc23)CCC1` [Example 19, 8-fluoro-7-(8-fluoronaphthalen-1-yl)-2-((hexahydro-1H-pyrrolizin-7a-yl)methoxy)-N-((1-methylcyclobutyl)methyl)pyrido[4,3-d]pyrimidin-4-amine], the half-maximal inhibitory concentration (IC50) was no less than 100 µM in assay [1], 84.3 µM in assay [2] and 64.5 µM in assay [3].
For `Fc1c(-c2cccc3cccc(F)c23)ncc2c(N3CCCC4CC43)nc(OCC34CCCN3CCC4)nc12` (centres unmarked) [Example 31, 4-(2-azabicyclo[4.1.0]heptan-2-yl)-8-fluoro-7-(8-fluoronaphthalen-1-yl)-2-((hexahydro-1H-pyrrolizin-7a-yl)methoxy)pyrido[4,3-d]pyrimidine], the IC50 in assay [2] came to 12.8 µM; in assay [3], 13.2 µM.
Take `Fc1c(-c2cccc3cccc(F)c23)ncc2c(N3CCCC4CCCC43)nc(OCC34CCCN3CCC4)nc12` (centres unmarked) [Example 32, 8-fluoro-7-(8-fluoronaphthalen-1-yl)-2-((hexahydro-1H-pyrrolizin-7a-yl)methoxy)-4-(octahydro-1H-cyclopenta[b]pyridin-1-yl)pyrido[4,3-d]pyrimidine]: the IC50 in assay [1] was 98.6 µM; in assay [2], 86.3 µM; in assay [3], no less than 100 µM.
For the compound `C[C@H]1C[C@@H](O)CN(c2nc(OCC34CCCN3CCC4)nc3c(F)c(-c4cccc5cccc(F)c45)ncc23)C1` [Example 33, (3R,5S)-1-(8-fluoro-7-(8-fluoronaphthalen-1-yl)-2-((hexahydro-1H-pyrrolizin-7a-yl)methoxy)pyrido[4,3-d]pyrimidin-4-yl)-5-methylpiperidin-3-ol], the IC50 is 6.37 µM in assay [1], 10 µM in assay [2] and 6.61 µM in assay [3].
On the same counts, the results for `Cc1cc2sc(N)nc2c(-c2ncc3c(N4CCCC(C)(O)C4)nc(OC[C@@]45CCCN4C[C@H](F)C5)nc3c2F)c1C` (stereo partly drawn) [Example 39, 1-(7-(2-amino-5,6-dimethylbenzo[d]thiazol-4-yl)-8-fluoro-2-(((2R,7aS)-2-fluorotetrahydro-1H-pyrrolizin-7a(5H)-yl)methoxy)pyrido[4,3-d]pyrimidin-4-yl)-3-methylpiperidin-3-ol] are 12.5 µM, 19.8 µM and 25.5 µM.
The like results for `Cc1cc2sc(N)nc2c(-c2ncc3c(N4CCCC(C)(O)C4)nc(OCC45CCCN4CCC5)nc3c2F)c1C` (centres unmarked) [Example 40, 1-(7-(2-amino-5,6-dimethylbenzo[d]thiazol-4-yl)-8-fluoro-2-((hexahydro-1H-pyrrolizin-7a-yl)methoxy)pyrido[4,3-d]pyrimidin-4-yl)-3-methylpiperidin-3-ol] were, in that order, 55 µM, 76.9 µM and 66.3 µM.
For `Fc1c(-c2cccc3cccc(F)c23)ncc2c(N3CCCCCCC3)nc(OCC34CCCN3CCC4)nc12` [Example 41, 4-(azocan-1-yl)-8-fluoro-7-(8-fluoronaphthalen-1-yl)-2-((hexahydro-1H-pyrrolizin-7a-yl)methoxy)pyrido[4,3-d]pyrimidine], the IC50 in assay [1] was found to be 6.48 µM; in assay [2], 6.39 µM; in assay [3] it was 3.41 µM.
Turning to `Fc1c(-c2cccc3cccc(F)c23)ncc2c(N3CCCOCC3)nc(OCC34CCCN3CCC4)nc12` [Example 42, 4-(8-fluoro-7-(8-fluoronaphthalen-1-yl)-2-((hexahydro-1H-pyrrolizin-7a-yl)methoxy)pyrido[4,3-d]pyrimidin-4-yl)-1,4-oxazepane], the figures for the IC50 in assay [1], in assay [2] and in assay [3] were 1.86 µM, 3.09 µM and 1.61 µM, respectively.
Take `Fc1c(-c2cccc3cccc(F)c23)ncc2c(N3CCCSCC3)nc(OCC34CCCN3CCC4)nc12` [Example 43, 4-(8-fluoro-7-(8-fluoronaphthalen-1-yl)-2-((hexahydro-1H-pyrrolizin-7a-yl)methoxy)pyrido[4,3-d]pyrimidin-4-yl)-1,4-thiazepane]: the concentration for half-maximal inhibition (IC50) in assay [1] stood at 3.78 µM; in assay [2] it was 2.27 µM; in assay [3] it was 1.3 µM.
The like results for `OC1CCCCN(c2nc(OCC34CCCN3CCC4)nc3c(F)c(-c4cccc5cccc(F)c45)ncc23)C1` (centres unmarked) [Example 44, 1-(8-fluoro-7-(8-fluoronaphthalen-1-yl)-2-((hexahydro-1H-pyrrolizin-7a-yl)methoxy)pyrido[4,3-d]pyrimidin-4-yl)azepan-3-ol] were, in that order, 3.23 µM, 6.24 µM and 2.99 µM.
For the compound `O=C1NCC2(CCCN(c3nc(OCC45CCCN4CCC5)nc4c(F)c(-c5cccc6cccc(F)c56)ncc34)C2)N1` (centres unmarked) [Example 45, 7-(8-fluoro-7-(8-fluoronaphthalen-1-yl)-2-((hexahydro-1H-pyrrolizin-7a-yl)methoxy)pyrido[4,3-d]pyrimidin-4-yl)-1,3,7-triazaspiro[4.5]decan-2-one], the half-maximal inhibitory concentration (IC50) came to 0.089 µM in assay [1], 0.362 µM in assay [2] and 0.189 µM in assay [3].
The like results for `OC1CCC2(CCCN(c3nc(OCC45CCCN4CCC5)nc4c(F)c(-c5cccc6cccc(F)c56)ncc34)C2)C1` (centres unmarked) [Example 47, 7-(8-fluoro-7-(8-fluoronaphthalen-1-yl)-2-((hexahydro-1H-pyrrolizin-7a-yl)methoxy)pyrido[4,3-d]pyrimidin-4-yl)-7-azaspiro[4.5]decan-2-ol] were, in that order, 63.4 µM, no less than 100 µM and 70.1 µM.
Take `Fc1c(-c2cccc3cccc(F)c23)ncc2c(N3CCOCC3)nc(OCC34CCCN3CCC4)nc12` [Example 49, 4-(8-fluoro-7-(8-fluoronaphthalen-1-yl)-2-((tetrahydro-1H-pyrrolizin-7a(5H)-yl)methoxy)pyrido[4,3-d]pyrimidin-4-yl)morpholine]: the values for the IC50 in assay [1], in assay [2] and in assay [3] were 70 µM, 18.9 µM and 27.9 µM, respectively.
Consider `Fc1c(-c2cccc3cccc(F)c23)ncc2c(N3CCSCC3)nc(OCC34CCCN3CCC4)nc12` [Example 50, 4-(8-fluoro-7-(8-fluoronaphthalen-1-yl)-2-((hexahydro-1H-pyrrolizin-7a-yl)methoxy)pyrido[4,3-d]pyrimidin-4-yl)thiomorpholine], for which the IC50 in assay [1] came to 39 µM; in assay [2], 22.7 µM; in assay [3], 22.6 µM.
The like results for `CCc1c(F)ccc2cc(O)cc(-c3ncc4c(NCC5(O)CCCCC5)nc(OC[C@@]56CCCN5C[C@H](F)C6)nc4c3F)c12` [Example 52, 5-ethyl-6-fluoro-4-(8-fluoro-2-(((2R,7aS)-2-fluorohexahydro-1H-pyrrolizin-7a-yl)methoxy)-4-(((1-hydroxycyclohexyl)methyl)amino)pyrido[4,3-d]pyrimidin-7-yl)naphthalen-2-ol] were, in that order, 0.235 µM, 0.039 µM and 0.025 µM.
On the same counts, the results for `CC1(C)CCCN(c2nc(OCC34CCCN3CCC4)nc3c(F)c(-c4cccc5cccc(F)c45)ncc23)C1` [Example 53, 4-(3,3-dimethylpiperidin-1-yl)-8-fluoro-7-(8-fluoronaphthalen-1-yl)-2-((hexahydro-1H-pyrrolizin-7a-yl)methoxy)pyrido[4,3-d]pyrimidine] are 66.4 µM, 90.2 µM and 49.4 µM.
